Measurements from ChEMBL document CHEMBL1201862, “PubChem BioAssay data set” (2004).
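Cultured in 96-well plates, cells were exposed to test compound for 48 hours across five concentrations. GI50 is the concentration that inhibits growth by half.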 Calls of active or inactive are those of the source. No stated cut-off is given here; in the data, active = GI50 up to about 1.1 µM and inactive = higher.

What was measured:
Test in all cases: growth of human tumour cells (NCI), 48 h
[1] = system: SN12C
[2] = system: MOLT-4
[3] = system: SK-OV-3
[4] = system: LOX IMVI
[5] = system: NCI/ADR-RES
[6] = system: MCF7
[7] = system: DU-145
[8] = system: SNB-19
[9] = system: EKVX
[10] = system: SF-268
[11] = system: ACHN
[12] = system: RPMI-8226
[13] = system: M14
[14] = system: KM12
[15] = system: OVCAR-8
[16] = system: RXF 393
[17] = system: U-251
[18] = system: SK-MEL-28
[19] = system: UACC-257
[20] = system: OVCAR-5

Measured: GI50

CCOC(=O)C(NC(=O)CC)(Nc1ccccc1F)C(F)(F)F (stereo not given)
inactive: [1] > 100 µM | [2] > 100 µM | [3] > 100 µM | [4] > 100 µM | [5] 99.3 µM | [6] > 100 µM | [7] > 100 µM | [8] > 100 µM | [9] > 100 µM | [10] > 100 µM | [11] 48.9 µM | [12] > 100 µM | [13] > 100 µM | [14] > 100 µM | [15] > 100 µM | [16] > 100 µM | [17] > 100 µM | [18] > 100 µM | [19] > 100 µM | [20] 58.1 µM
